Measurements taken from US10597388B2, “Pyridazinone herbicides” (FMC CORPORATION, priority 2014, dated 2020).

What was measured:
Format in all cases: in vivo
[1] = test system: kochia (Kochia scoparia); experiment: Test C greenhouse herbicide test, postemergence; details: Postemergence
In short: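 Plants grown in potting mix of peat moss, vermiculite, wetting agent and starter nutrients were sprayed postemergence at 2 to 18 cm height (1- to 4-leaf stage). After 13 to 15 d in the greenhouse, injury was visually rated against untreated controls on a 0–100 scale (0 no effect, 100 complete control).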

[2] = test system: foxtail, giant (giant foxtail, Setaria faberii); experiment: Test C greenhouse herbicide test, pre- and postemergence
In short: (§1)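 Percent-control ratings (0 none, 100 complete) came from visual comparison with controls held alongside in the greenhouse for 13–15 d. Treatments covered soil application at sowing and foliar application to young plants 2–18 cm tall.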

[3] = test system: corn (Zea mays); experiment: as above
In short: as §1

[4] = test system: wheat (winter wheat, Triticum aestivum); experiment: as above
In short: as §1

[5] = test system: nutsedge, yellow (yellow nutsedge, Cyperus esculentus); experiment: as above
In short: as §1

[6] = test system: waterhemp (common waterhemp, Amaranthus rudis); experiment: as above
In short: as §1

[7] = test system: pigweed (Amaranthus retroflexus); experiment: as above
In short: as §1

[8] = test system: ragweed (common ragweed, Ambrosia elatior); experiment: as above
In short: as §1

[9] = test system: johnsongrass (Sorghum halepense); experiment: as above
In short: as §1

[10] = test system: oilseed rape (Brassica napus); experiment: as above
In short: as §1

[11] = test system: morningglory (Ipomoea coccinea); experiment: as above
In short: as §1

[12] = test system: ryegrass, Italian (Italian ryegrass, Lolium multiflorum); experiment: as above
In short: as §1

[13] = test system: crabgrass, large (large crabgrass, Digitaria sanguinalis); experiment: as above
In short: as §1

[14] = test system: lambsquarters (Chenopodium album); experiment: as above
In short: as §1

[15] = test system: soybean (Glycine max); experiment: as above
In short: as §1

[16] = test system: blackgrass (Alopecurus myosuroides); experiment: as above
In short: as §1

[17] = Postemergence, 31 g ai/ha, scale 0 to 100 (0 no effect, 100 complete control)
[18] = Postemergence, 125 g ai/ha, scale 0 to 100, 0 is no effect, 100 is complete control
[19] = Postemergence, 250 g ai/ha, scale 0 to 100, 0 no effect, 100 complete control, 13 to 15 d
[20] = Preemergence, 31 g ai/ha, scale 0 to 100, 0 is no effect, 100 is complete control
[21] = Preemergence, 62 g ai/ha, scale 0 to 100, 0 is no effect, 100 is complete control
[22] = Preemergence, 125 g ai/ha, scale 0 to 100, 0 is no effect, 100 is complete control
[23] = Preemergence, 250 g ai/ha, scale 0 to 100 (0 no effect, 100 complete control)
[24] = postemergence, 62 g ai/ha, scale 0 to 100, 0 no effect, 100 complete control

CCCC(=O)Oc1c(C)nn(C)c(=O)c1-c1c(C)sc2c(C)cc(C)cc12 [Compound 106] was tested, and the “Plant response rating, Kochia” value ([1]; 31 g ai/ha, scale 0 to 100 (0 no effect, 100 complete control)) was 70, the “Plant response rating, Kochia” value ([1]; 125 g ai/ha, scale 0 to 100, 0 is no effect, 100 is complete control) was 80 and the “Plant response rating, Kochia” value ([1]; 250 g ai/ha, scale 0 to 100, 0 no effect, 100 complete control, 13 to 15 d) was 80. For the same compound, the “Plant response rating, Foxtail, Giant” value [2, 17] was 70, the “Plant response rating, Foxtail, Giant” value [2, 18] was 90 and the “Plant response rating, Foxtail, Giant” value [2, 19] was 95. For the same compound, the “Plant response rating, Foxtail, Giant” value [2, 20] was 85, the “Plant response rating, Foxtail, Giant” value [2, 21] was 95 and the “Plant response rating, Foxtail, Giant” value [2, 22] was 100. The “Foxtail, Giant plant response rating” value [2, 23] was 100, the “Plant response rating, Corn” value [3, 17] was 0 and the “Plant response rating, Corn” value [3, 18] was 10. For the same compound, the “Plant response rating, Corn” value [3, 19] was 10, the “Plant response rating, Corn” value [3, 20] was 0 and the “Plant response rating, Corn” value [3, 21] was 0. The “Plant response rating, Corn” value [3, 22] was 10, the “Corn plant response rating” value [3, 23] was 20 and the “Corn plant response rating” value [3, 24] was 10. For the same compound, the “Plant response rating, Wheat” value [4, 17] was 0, the “Plant response rating, Wheat” value [4, 18] was 0 and the “Plant response rating, Wheat” value [4, 19] was 5. The “Plant response rating, Wheat” value [4, 20] was 15, the “Plant response rating, Wheat” value [4, 21] was 0 and the “Plant response rating, Wheat” value [4, 22] was 0. For the same compound, the “Wheat plant response rating” value [4, 23] was 0, the “Plant response rating, Nutsedge, Yellow” value [5, 17] was 65 and the “Plant response rating, Nutsedge, Yellow” value [5, 18] was 90. The “Plant response rating, Nutsedge, Yellow” value [5, 19] was 80, the “Plant response rating, Nutsedge, Yellow” value [5, 20] was 60 and the “Plant response rating, Nutsedge, Yellow” value [5, 21] was 70. The “Plant response rating, Nutsedge, Yellow” value [5, 22] was 80, the “Nutsedge, Yellow plant response rating” value [5, 23] was 90 and the “Plant response rating, Waterhemp” value [6, 17] was 65. For the same compound, the “Plant response rating, Waterhemp” value [6, 18] was 75, the “Plant response rating, Waterhemp” value [6, 19] was 80 and the “Plant response rating, Waterhemp” value [6, 20] was 70. For the same compound, the “Plant response rating, Waterhemp” value [6, 21] was 75, the “Plant response rating, Waterhemp” value [6, 22] was 80 and the “Waterhemp plant response rating” value [6, 23] was 90. For the same compound, the “Plant response rating, Pigweed” value [7, 17] was 70, the “Plant response rating, Pigweed” value [7, 18] was 90 and the “Plant response rating, Pigweed” value [7, 19] was 90. The “Plant response rating, Pigweed” value [7, 20] was 98, the “Plant response rating, Pigweed” value [7, 21] was 98 and the “Plant response rating, Pigweed” value [7, 22] was 100. The “Pigweed plant response rating” value [7, 23] was 100, the “Plant response rating, Ragweed” value [8, 17] was 80 and the “Plant response rating, Ragweed” value [8, 18] was 75. For the same compound, the “Plant response rating, Ragweed” value [8, 19] was 98, the “Plant response rating, Ragweed” value [8, 20] was 85 and the “Plant response rating, Ragweed” value [8, 21] was 90. For the same compound, the “Plant response rating, Ragweed” value [8, 22] was 95, the “Ragweed plant response rating” value [8, 23] was 95 and the “Plant response rating, Johnsongrass” value [9, 17] was 5. The “Plant response rating, Johnsongrass” value [9, 18] was 10, the “Plant response rating, Johnsongrass” value [9, 19] was 10 and the “Plant response rating, Johnsongrass” value [9, 20] was 5. For the same compound, the “Plant response rating, Johnsongrass” value [9, 21] was 5, the “Plant response rating, Johnsongrass” value [9, 22] was 5 and the “Johnsongrass plant response rating” value [9, 23] was 15. The “Plant response rating, Oilseed Rape” value [10, 17] was 60, the “Plant response rating, Oilseed Rape” value [10, 18] was 85 and the “Plant response rating, Oilseed Rape” value [10, 19] was 95. The “Plant response rating, Oilseed Rape” value [10, 20] was 0, the “Plant response rating, Oilseed Rape” value [10, 21] was 0 and the “Plant response rating, Oilseed Rape” value [10, 22] was 30. For the same compound, the “Oilseed Rape plant response rating” value [10, 23] was 90, the “Plant response rating, Morningglory” value [11, 17] was 100 and the “Plant response rating, Morningglory” value [11, 18] was 100. The “Plant response rating, Morningglory” value [11, 19] was 98, the “Plant response rating, Morningglory” value [11, 20] was 85 and the “Plant response rating, Morningglory” value [11, 21] was 90. For the same compound, the “Plant response rating, Morningglory” value [11, 22] was 98, the “Morningglory plant response rating” value [11, 23] was 98 and the “Plant response rating, Ryegrass, Italian” value [12, 17] was 85. For the same compound, the “Plant response rating, Ryegrass, Italian” value [12, 18] was 90, the “Plant response rating, Ryegrass, Italian” value [12, 19] was 35 and the “Plant response rating, Ryegrass, Italian” value [12, 20] was 50. For the same compound, the “Plant response rating, Ryegrass, Italian” value [12, 21] was 70, the “Plant response rating, Ryegrass, Italian” value [12, 22] was 85 and the “Ryegrass, Italian plant response rating” value [12, 23] was 90. For the same compound, the “Plant response rating, Crabgrass, Large” value [13, 17] was 25, the “Plant response rating, Crabgrass, Large” value [13, 18] was 30 and the “Plant response rating, Crabgrass, Large” value [13, 19] was 30. For the same compound, the “Plant response rating, Crabgrass, Large” value [13, 20] was 70, the “Plant response rating, Crabgrass, Large” value [13, 21] was 70 and the “Plant response rating, Crabgrass, Large” value [13, 22] was 75. For the same compound, the “Crabgrass, Large plant response rating” value [13, 23] was 80, the “Crabgrass, Large plant response rating” value [13, 24] was 40 and the “Plant response rating, Lambsquarters” value [14, 17] was 85. The “Plant response rating, Lambsquarters” value [14, 18] was 95, the “Plant response rating, Lambsquarters” value [14, 19] was 98 and the “Plant response rating, Lambsquarters” value [14, 20] was 90. For the same compound, the “Plant response rating, Lambsquarters” value [14, 21] was 90, the “Plant response rating, Lambsquarters” value [14, 22] was 100 and the “Lambsquarters plant response rating” value [14, 23] was 100. The “Plant response rating, Soybean” value [15, 17] was 0, the “Plant response rating, Soybean” value [15, 18] was 0 and the “Plant response rating, Soybean” value [15, 19] was 10. For the same compound, the “Plant response rating, Soybean” value [15, 20] was 0, the “Plant response rating, Soybean” value [15, 21] was 0 and the “Plant response rating, Soybean” value [15, 22] was 0. The “Soybean plant response rating” value [15, 23] was 0, the “Plant response rating, Blackgrass” value [16, 17] was 45 and the “Plant response rating, Blackgrass” value [16, 18] was 60. For the same compound, the “Plant response rating, Blackgrass” value [16, 19] was 75, the “Plant response rating, Blackgrass” value [16, 20] was 10 and the “Plant response rating, Blackgrass” value [16, 21] was 50. For the same compound, the “Plant response rating, Blackgrass” value [16, 22] was 90, the “Blackgrass plant response rating” value [16, 23] was 85 and the “Blackgrass plant response rating” value [16, 24] was 50.
